Broadly, the IC50 is the concentration that gives 50% inhibition.

Where a SMILES comes first, the peptide text is derived from it. Bridges are numbered along the chain shown (N, C = ends). Roman numbers before positions name the chains, in order. [ ]: non-standard residue; d: D form. Phe(3,4-(OMe)2) = COc1ccc(C[C@H](N)C(=O)O)cc1OC; Phe(4-CONH2) = NC(=O)c1ccc(C[C@H](N)C(=O)O)cc1; Pen = CC(C)(S)[C@H](N)C(=O)O; hLeu = CC(C)CC[C@H](N)C(=O)O; αMeV = CC(C)[C@](C)(N)C(=O)O

For test [1], the target named is T1, Interleukin-23 receptor (Homo sapiens, UniProt Q5VWK5).
T1 sequence (Q5VWK5 whole entry): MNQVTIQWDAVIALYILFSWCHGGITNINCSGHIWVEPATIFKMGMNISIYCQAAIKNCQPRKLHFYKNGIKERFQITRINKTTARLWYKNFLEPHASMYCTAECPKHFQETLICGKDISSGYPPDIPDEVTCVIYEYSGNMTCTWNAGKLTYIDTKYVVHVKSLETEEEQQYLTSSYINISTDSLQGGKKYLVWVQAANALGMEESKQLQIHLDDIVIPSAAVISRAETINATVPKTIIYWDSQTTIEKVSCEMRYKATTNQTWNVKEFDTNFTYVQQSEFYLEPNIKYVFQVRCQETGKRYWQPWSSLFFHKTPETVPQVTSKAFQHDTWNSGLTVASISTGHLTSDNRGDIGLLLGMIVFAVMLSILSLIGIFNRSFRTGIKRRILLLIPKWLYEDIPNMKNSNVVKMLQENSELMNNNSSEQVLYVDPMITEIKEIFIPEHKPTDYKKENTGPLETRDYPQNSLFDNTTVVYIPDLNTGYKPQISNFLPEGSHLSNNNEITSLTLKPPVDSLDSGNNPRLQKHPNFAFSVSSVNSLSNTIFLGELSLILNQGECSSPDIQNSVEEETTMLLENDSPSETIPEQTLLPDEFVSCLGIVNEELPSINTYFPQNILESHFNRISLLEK
Put plainly: Inhibition of interleukin-23 receptor in human DB cells assessed as reduction in IL-23-stimulated STAT3 phosphorylation incubated for 30 mins by HTRF assay. Format: cell-based.

Test [2] addresses T1, Interleukin-23 receptor. Put plainly: Inhibition of interleukin-23 binding to human interleukin-23 receptor incubated for 2 hrs by competitive binding ELISA. In general terms: In an ELISA, binding on a coated surface is turned into a signal by an enzyme label.

`COc1ccc(C[C@H](NC(=O)[C@H](Cc2ccc(C(N)=O)cc2)NC(=O)[C@@H](NC(=O)[C@H](CCC(N)=O)NC(=O)[C@H](Cc2c[nH]c3ccccc23)NC(=O)[C@@H](NC(=O)[C@H](CCC(N)=O)NC(=O)[C@@H](NC(C)=O)C(C)(C)S)[C@@H](C)O)C(C)(C)S)C(=O)N[C@](C)(C(=O)N[C@@H](CCCCNC(C)=O)C(=O)N[C@@H](CC(N)=O)C(=O)N[C@@H](CC(N)=O)C(N)=O)C(C)C)cc1OC` (Ac-[Pen]QTWQ[Pen][Phe(4-CONH2)][Phe(3,4-(OMe)2)][αMeV]K(Ac)NN-NH2): at Interleukin-23 receptor [1], the IC50 was in the range of 0.01 to 0.025 µM.

For `CC(=O)NCCCC[C@H](NC(=O)C(C)(C)NC(=O)[C@H](Cc1ccc2ccccc2c1)NC(=O)[C@H](Cc1ccc(OCCN)cc1)NC(=O)[C@@H](NC(=O)[C@H](CCC(N)=O)NC(=O)[C@H](Cc1c[nH]c2ccccc12)NC(=O)[C@@H](NC(=O)[C@H](CCC(N)=O)NC(=O)[C@@H](NC(=O)[C@H](CCCNC(=N)N)NC(C)=O)C(C)(C)S)[C@@H](C)O)C(C)(C)S)C(=O)N[C@@H](CC(N)=O)C(=O)N[C@@H](CC(N)=O)C(N)=O`, on Interleukin-23 receptor [1], the IC50 is less than 0.01 µM.

Molecule `CC(C)[C@H](NC(=O)[C@H](Cc1c[nH]c2ccccc12)N(C)C(=O)[C@H](CC(=O)O)NC(=O)[C@H](C)NC(=O)[C@@H](N)CS)C(=O)N[C@@H](CS)C(=O)N[C@@H](Cc1ccc(O)cc1)C(=O)N[C@@H](Cc1cccc2ccccc12)C(=O)N[C@@H](Cc1cnc[nH]1)C(=O)N[C@H](C(=O)N[C@@H](Cc1ccccc1)C(=O)O)[C@@H](C)O` came in with an IC50 on Interleukin-23 receptor [2] greater than 1 µM.

Turning to `CC(=O)N[C@H](CCCCN)C(=O)NCCC(=O)N[C@@H](CS)C(=O)N[C@@H](C)C(=O)N[C@@H](CC(=O)O)C(=O)N[C@@H](Cc1c[nH]c2ccccc12)C(=O)N[C@H](C(=O)N[C@@H](CS)C(=O)N[C@@H](Cc1ccc(O)cc1)C(=O)N[C@@H](Cc1c[nH]c2ccccc12)C(=O)N[C@@H](Cc1cnc[nH]1)C(=O)N[C@H](C(=O)N[C@@H](Cc1ccccc1)C(=O)NCC(=O)O)[C@@H](C)O)C(C)C`, the IC50 on Interleukin-23 receptor [2] was greater than 1 µM.

On Interleukin-23 receptor [2], `CC(=O)N[C@@H](CS)C(=O)N[C@@H](C)C(=O)N[C@@H](CC(=O)O)C(=O)N[C@@H](Cc1c[nH]c2ccccc12)C(=O)N[C@H](C(=O)N[C@@H](CS)C(=O)N[C@@H](Cc1ccc(O)cc1)C(=O)N[C@@H](Cc1cccc2ccccc12)C(=O)N[C@H](C)C(=O)N[C@H](C(=O)N[C@@H](Cc1ccccc1)C(=O)NCC(N)=O)[C@@H](C)O)C(C)C` returned an IC50 greater than 1 µM.

In turn, `CC(=O)N[C@@H](CS)C(=O)N[C@@H](C)C(=O)N[C@@H](CC(=O)O)C(=O)N[C@@H](Cc1c[nH]c2ccccc12)C(=O)N[C@H](C(=O)N[C@@H](CS)C(=O)N[C@@H](Cc1ccc(O)cc1)C(=O)N[C@@H](Cc1c[nH]c2ccccc12)C(=O)N[C@@H](Cc1cnc[nH]1)C(=O)N[C@@H](CCC(=O)O)C(=O)N[C@@H](Cc1ccccc1)C(=O)NCC(N)=O)C(C)C` came in with an IC50 at Interleukin-23 receptor [2] of 0.5 to 1 µM.

Molecule `CC(=O)N[C@@H](CS)C(=O)N[C@@H](C)C(=O)N[C@@H](CC(=O)O)C(=O)N[C@@H](Cc1c[nH]c2ccccc12)C(=O)N[C@H](C(=O)N[C@@H](CS)C(=O)N[C@@H](Cc1ccc(O)cc1)C(=O)N[C@@H](Cc1c[nH]c2ccccc12)C(=O)N[C@@H](Cc1cnc[nH]1)C(=O)N[C@H](C(=O)N[C@@H](Cc1ccccc1)C(=O)NCC(=O)N[C@@H](CC(=O)O)C(=O)N[C@@H](CCCCNC(=O)COCC(=O)NCCCC[C@H](NC(=O)[C@H](CC(=O)O)NC(=O)CNC(=O)[C@H](Cc1ccccc1)NC(=O)[C@@H](NC(=O)[C@H](Cc1cnc[nH]1)NC(=O)[C@H](Cc1c[nH]c2ccccc12)NC(=O)[C@H](Cc1ccc(O)cc1)NC(=O)[C@H](CS)NC(=O)[C@@H](NC(=O)[C@H](Cc1c[nH]c2ccccc12)NC(=O)[C@H](CC(=O)O)NC(=O)[C@H](C)NC(=O)[C@H](CS)NC(C)=O)C(C)C)[C@@H](C)O)C(=O)O)C(=O)O)[C@@H](C)O)C(C)C` returned an IC50 on Interleukin-23 receptor [2] of 1 to 10 µM.

On to `CC(=O)N[C@@H](CS)C(=O)N[C@@H](C)C(=O)N[C@@H](CC(=O)O)C(=O)N[C@@H](Cc1c[nH]c2ccccc12)C(=O)N[C@H](C(=O)N[C@@H](CS)C(=O)N[C@@H](Cc1ccc(O)cc1)C(=O)N[C@@H](Cc1c[nH]c2ccccc12)C(=O)N[C@@H](Cc1cnc[nH]1)C(=O)N[C@H](C(=O)N[C@@H](Cc1ccccc1)C(=O)NCC(=O)N1CCC[C@H]1C(=O)N[C@H](CCCCN)C(=O)O)[C@@H](C)O)C(C)C`, for which the IC50 on Interleukin-23 receptor [2] is less than 0.5 µM.

`C[C@@H](O)[C@H](NC(=O)[C@@H]1CCCN1C(=O)[C@@H](N)Cc1ccccc1)C(=O)N[C@@H](Cc1c[nH]c2ccccc12)C(=O)N[C@@H](CCC(=O)O)C(=O)N[C@@H](Cc1c[nH]c2ccccc12)C(=O)N[C@@H](Cc1ccc(O)cc1)C(=O)N[C@@H](Cc1c[nH]c2ccccc12)C(=O)N[C@@H](CSSC[C@H](NC(=O)[C@H](Cc1c[nH]c2ccccc12)NC(=O)[C@H](Cc1ccc(O)cc1)NC(=O)[C@H](Cc1c[nH]c2ccccc12)NC(=O)[C@H](CCC(=O)O)NC(=O)[C@H](Cc1c[nH]c2ccccc12)NC(=O)[C@@H](NC(=O)[C@@H]1CCCN1C(=O)[C@@H](N)Cc1ccccc1)[C@@H](C)O)C(=O)N[C@@H](CC(N)=O)C(=O)N[C@@H](CCCNC(=N)N)C(=O)N[C@@H](CC(=O)O)C(N)=O)C(=O)N[C@@H](CC(N)=O)C(=O)N[C@@H](CCCNC(=N)N)C(=O)N[C@@H](CC(=O)O)C(N)=O` (I: H-FPTWEWYWCNRD-NH2 / II: H-FPTWEWYWCNRD-NH2; disulfide I:9-II:9): on Interleukin-23 receptor [2], the IC50 is 1 to 10 µM.

As for `CC(=O)N[C@@H](CS)C(=O)N[C@@H](CCCNC(=N)N)C(=O)N[C@H](C(=O)N[C@@H](Cc1c[nH]c2ccccc12)C(=O)N[C@@H](CCC(N)=O)C(=O)N[C@@H](CS)C(=O)N[C@@H](Cc1ccc(O)cc1)C(=O)N[C@@H](Cc1c[nH]c2ccccc12)C(=O)N[C@@H](CCCNC(=N)N)C(=O)N[C@@H](CCCCN)C(=O)N[C@@H](Cc1ccccc1)C(=O)NCC(=O)NCCOCC(=O)N[C@H](CCCCN)C(N)=O)[C@@H](C)O`, the IC50 at Interleukin-23 receptor [2] is less than 0.5 µM.

At Interleukin-23 receptor [2], `CC(=O)N[C@@H](CS)C(=O)N[C@@H](CCC(N)=O)C(=O)N[C@H](C(=O)N[C@@H](Cc1c[nH]c2ccccc12)C(=O)N[C@@H](CCC(N)=O)C(=O)N[C@@H](CS)C(=O)N[C@@H](Cc1ccc(O)cc1)C(=O)N[C@@H](Cc1c[nH]c2ccccc12)C(=O)N[C@@H](CCONC(=N)N)C(=O)N[C@@H](CCC(=O)O)C(=O)N[C@@H](CC(N)=O)C(=O)NCC(=O)NCCOCC(=O)N[C@H](CCCCN)C(N)=O)[C@@H](C)O` came in with an IC50 of less than 0.5 µM.

In turn, `CC(=O)N[C@@H](CS)C(=O)N[C@@H](C)C(=O)N[C@@H](CC(=O)O)C(=O)N[C@@H](Cc1c[nH]c2ccccc12)C(=O)N[C@H](C(=O)N[C@H](C(=O)N[C@@H](Cc1ccc(O)cc1)C(=O)N[C@@H](Cc1c[nH]c2ccccc12)C(=O)N[C@@H](Cc1cnc[nH]1)C(=O)N[C@H](C(=O)N[C@@H](Cc1ccccc1)C(=O)NCC(N)=O)[C@@H](C)O)C(C)(C)S)C(C)C` displayed an IC50 on Interleukin-23 receptor [2] of 1 to 10 µM.

On Interleukin-23 receptor [2], `C[C@H](NC(=O)[C@@H](N)CS)C(=O)N[C@@H](CC(=O)O)C(=O)N[C@@H](Cc1c[nH]c2ccccc12)C(=O)N(C)CC(=O)N[C@@H](CS)C(=O)N[C@@H](Cc1ccc(O)cc1)C(=O)N[C@@H](Cc1cccc2ccccc12)C(=O)N[C@@H](Cc1cnc[nH]1)C(=O)N[C@H](C(=O)N[C@@H](Cc1ccccc1)C(=O)O)[C@@H](C)O` showed an IC50 greater than 1 µM.

`CC(=O)N[C@@H](CS)C(=O)N[C@@H](CCC(N)=O)C(=O)N[C@H](C(=O)N[C@@H](CC(N)=O)C(=O)N[C@@H](CCC(N)=O)C(=O)N[C@@H](CS)C(=O)N[C@@H](Cc1ccc(O)cc1)C(=O)N[C@@H](Cc1c[nH]c2ccccc12)C(=O)N[C@@H](CCC(C)C)C(=O)N[C@@H](CCC(=O)O)C(=O)N[C@@H](CC(N)=O)C(=O)NCC(N)=O)[C@@H](C)O` (Ac-CQTNQCYW[hLeu]ENG-NH2) returned an IC50 on Interleukin-23 receptor [2] greater than 10 µM.

On Interleukin-23 receptor [2], `CC(C)[C@H](NC(=O)C[C@H](Cc1c[nH]c2ccccc12)NC(=O)[C@H](CC(=O)O)NC(=O)[C@H](C)NC(=O)[C@@H](N)CS)C(=O)N[C@@H](CS)C(=O)N[C@@H](Cc1ccc(O)cc1)C(=O)N[C@@H](Cc1c[nH]c2ccccc12)C(=O)N[C@@H](Cc1cnc[nH]1)C(=O)N[C@H](C(=O)N[C@@H](Cc1ccccc1)C(=O)NCC(N)=O)[C@@H](C)O` gave an IC50 greater than 1 µM.

On to `COc1ccc(C[C@H](NC(=O)[C@@H](NC(=O)[C@H](CCC(N)=O)NC(=O)[C@H](Cc2c[nH]c3ccccc23)NC(=O)[C@@H](NC(=O)[C@H](CCC(N)=O)NC(=O)[C@@H](NC(=O)Cc2ccc(-c3ccccc3)cc2)C(C)(C)S)[C@@H](C)O)C(C)(C)S)C(=O)N[C@@H](Cc2ccc3ccccc3c2)C(=O)N[C@@](C)(CCCCN)C(=O)N[C@@H](CCCCNC(C)=O)C(=O)N[C@@H](CC(N)=O)C(=O)NCC(N)=O)cc1`, for which the IC50 on Interleukin-23 receptor [2] was 0.1 to 1 µM.

Molecule `CC(C)[C@H](NC(=O)[C@H](Cc1c[nH]c2ccccc12)NC(=O)[C@H](CC(=O)O)NC(=O)[C@H](C)NC(=O)[C@H](CS)NC(=O)COCCN)C(=O)N[C@@H](CS)C(=O)N[C@@H](Cc1ccc(O)cc1)C(=O)N[C@@H](Cc1c[nH]c2ccccc12)C(=O)N[C@@H](Cc1cnc[nH]1)C(=O)N[C@H](C(=O)N[C@@H](Cc1ccccc1)C(=O)NCC(=O)O)[C@@H](C)O` yielded an IC50 at Interleukin-23 receptor [2] greater than 1 µM.

Consider `CC(=O)N[C@@H](CS)C(=O)N[C@@H](C)C(=O)N[C@@H](CC(=O)O)C(=O)N[C@@H](Cc1c[nH]c2ccccc12)C(=O)N[C@H](C(=O)N[C@@H](CS)C(=O)N[C@@H](Cc1ccc(O)cc1)C(=O)NC1(C(=O)N[C@@H](Cc2cnc[nH]2)C(=O)N[C@H](C(=O)N[C@@H](Cc2ccccc2)C(=O)NCC(=O)NCCOCC(=O)N[C@H](CCCCN)C(N)=O)[C@@H](C)O)Cc2ccccc2C1)C(C)C`, for which the IC50 at Interleukin-23 receptor [2] is greater than 1 µM.

The values are drawn from ChEMBL document CHEMBL4417631, “Oral peptide inhibitors of interleukin-23 receptor and their use to treat inflammatory bowel diseases” (2017).
